Experimental data reported in ChEMBL document CHEMBL5346962, “Discovery of Sulanemadlin (ALRN-6924), the First Cell-Permeating, Stabilized α-Helical Peptide in Clinical Development” (J Med Chem, 2023).
Calls of active or inactive are those of the source. The rule behind the calls is not given here.

How the values were obtained:
[1] = test system: Fibroblast; assay: Protection against chemotherapy-induced apoptosis in human fibroblast assessed as decrease in caspase-3/7 level preincubated for 16 hrs followed by docetaxel trihydrate addition measured after 32 hrs; format: functional, cell-based; conditions: dose 4.6-10 µM, time 48.0 hrs
[2] = test system: CD34-positive (myeloid/lymphoid) cell; assay: Protection against chemotherapy-induced cell cycle arrest in human CD34+ cells assessed as DNA damage by measuring gamma-H2AX level at 1 uM preincubated for 24 hrs followed by topotecan addition measured after 24 hrs; format: functional, cell-based; conditions: time 48.0 hrs
[3] = Induction of cell cycle arrest in human CD34+ cells assessed as accumulation at S phase at 0.1 uM incubated for 24 hrs by flow cytometry (reference value: 27.5 +/- 5.8%); format: toxicity, cell-based; conditions: cd34-positive (myeloid/lymphoid) cell
[4] = test system: Mus musculus; assay: Protection against topotecan-induced epithelium hyperplasia in gastrointestinal tract of C57BL/6 mouse at 2.4 mg/kg administered on day 0 to 4 and co-administered 30 mins prior to topotecan on day 1 to 4 followed by topotecan administration on day 5 measured on day 9 by H&E staining based analysis; format: functional, organism-based; conditions: time 9.0 day
[5] = Cmax in rat at 2.5 mg/kg by LC-MS/MS analysis; format: ADME, organism-based; set-up: dose 2.5 mg/kg; conditions: in vivo
[6] = Cmax in mouse at 5 mg/kg by LC-MS/MS analysis; format: ADME, organism-based; set-up: dose 5 mg/kg; conditions: in vivo
[7] = Clearance in rat at 2.5 mg/kg by LC-MS/MS analysis; format: ADME, organism-based; conditions: in vivo
[8] = test system: Bone marrow cell; assay: Downregulation of Ki67 expression level in bone marrow cells of C57BL/6 mouse at 2.4 mg/kg, iv administered every 8 hrs measured for 16 hrs by immunohistochemical analysis; format: functional, organism-based
[9] = test system: Fibroblast; assay: Protection against chemotherapy-induced apoptosis in human fibroblast assessed as decrease in caspase-3/7 level preincubated for 16 hrs followed by SN-38 addition measured after 32 hrs; format: functional, cell-based; conditions: dose 4.6-10 µM, time 48.0 hrs
[10] = Plasma protein binding in human at 2 to 50 uM; format: ADME, cell-free; conditions: dose 2-50 µM, read-out: PPB (converted)
[11] = Drug excretion in bile-duct cannulated rat assessed as ALRN-8714 metabolite elimination at 10 mg/kg, iv measured for 8 hrs by LC-MS/MS analysis; format: ADME, organism-based; conditions: in vivo
[12] = Toxicity in rat assessed as NOAEL administered twice weekly for 4 weeks; conditions: in vivo
[13] = test system: MCF7; assay: Antitumor activity against human MCF7 cells xenografted in athymic nu/nu mouse […] assessed as tumor growth inhibition administered intravenously twice a week measured for 30 days; format: functional, cell-based; conditions: dose 5-20 mg/kg, route iv, time 30.0 day
[14] = Plasma protein binding in mouse at 2 to 50 uM; format: ADME, cell-free; conditions: dose 2-50 µM, read-out: PPB (converted)

With `CC(=O)N[C@@H](CC(C)C)C(=O)N[C@H](C(=O)N[C@@H](Cc1ccccc1)C(=O)N[C@]1(C)CCCCCC/C=C/CCC[C@@](C)(C(=O)N[C@@H](C)C(=O)N[C@@H](C)C(=O)N[C@@H](C)C(=O)N[C@@H](C)C(=O)N[C@@H](C)C(=O)N[C@H](C)C(N)=O)NC(=O)[C@H](CC(C)C)NC(=O)[C@H](CCC(N)=O)NC(=O)[C@H](C)NC(=O)[C@H](Cc2c[nH]c3ccccc23)NC(=O)[C@H](Cc2ccc(O)cc2)NC(=O)[C@H](CCC(=O)O)NC1=O)[C@@H](C)O` the Activity [1] was “Dose-Dependent Effect”, the Activity [2] was “inactive” and the Activity [3] was 21.35%. For the same compound, the Activity [4] was “Active”, the Cmax [5] was 49.9 µg/mL and the Cmax [6] was 67.8 µg/mL. The clearance [7] was 0.467 mL/min/kg, the Activity [8] was “Active” and the Activity [9] was “Dose-Dependent Effect”. For the same compound, the fraction unbound at up to 50 µM [10] was 0.08, the Drug excretion [11] was “Active” and the NOAEL at 672 h [12] was 2.5 mg/kg. For the same compound, the Activity [13] was “Dose-Dependent Effect” and the fraction unbound at up to 50 µM [14] was 0.08.
